# Data as given in PMC8961551, “Potential Anticancer Agents against Melanoma Cells Based on an As-Synthesized Thiosemicarbazide Derivative” (Biomolecules, 2022).
# Read-outs that look alike come from different tables or passages of the source.
# What was measured:
# [1] = test system: G-361 melanoma; test: MTT cytotoxicity, G-361 melanoma; format: cell-based, human; conditions: for cytotoxic to melanoma cells (MTT test): G-361, concentration range used; for IC50: MTT test, 24 h treatment, G-361 melanoma
# Experimental: (§1) Biological studies were performed on human malignant melanoma G-361 (ATCC CRL-1424) cell lines and human fibroblast BJ (ATCC® CRL-2522™) cell lines purchased from the American Type Culture Collection (ATCC, Manassas, VA USA). The G-361 cell lines were maintained in McCoy’s medium (Corning, NY, USA), and the fibroblast BJ cell line was cultured in EMEM (Corning, NY, USA). All media were supplemented with 10% heat-inactivated fetal bovine serum (PAN-Biotech, Aidenbach, Germany), 100 U/mL penicillin, 100 μg/mL streptomycin and 0.25 μg/mL amphotericin B (Sigma-Aldrich, St. Louis, MO, USA). Cultures were maintained at 37 °C in a humidified atmosphere of 95% air and 5% CO2. The experiments were performed using cells from passage 5 to 10.
# (§2) The cytotoxicity of the new compounds was evaluated against both the G-361 and BJ cell lines. Cells were seeded into 96-well plates at a density of 3 × 10^4 cells/well and 2 × 10^4 cells/well. After 24 h of incubation, when 70–80% confluence was reached, the culture medium was removed and replaced with the fresh one containing the tested compounds in the concentration range of 10, 25, 50, 75, 100, 125 and 250 μM. Cells were cultured at 37 °C in the presence of 5% air with CO2 for another 24 h. The cytotoxicity of the test compounds was evaluated by the MTT colorimetric assay, based on the ability of live cells to convert yellow soluble tetrazolium salts (3-[4,5-dimethylthiazol-2-yl]- 2,5-diphenyltetrazolium bromide, MTT) to purple insoluble formazan by cellular dehydrogenase. After 24 h of incubation with solutions of the test compounds, 4 mg/mL MTT solution (Thermo Scientific, Waltham, MA, USA) was added to the cell cultures and incubation was continued for 4 h at 37 °C. The MTT medium was then removed, and the resulting crystals were dissolved in 200 µL of DMSO. The solution was measured for absorbance at 570 nm using a Power Wave xs spectrophotometric plate reader, BioTek Instruments (Winooski, VT, USA). The experiment was performed three times with three replicates for each concentration. IC50 values were determined using the AAT Bioquest IC50 calculator.
# [2] = test system: BJ normal fibroblast cell line; test: MTT cytotoxicity, BJ normal fibroblasts; format: cell-based, human; conditions: for toxic to normal fibroblasts (MTT test): BJ, concentration range used; for IC50: MTT test
# Experimental: as §1, §2
# [3] = test system: melanoma line G-361; test: Intracellular thiol / reduced glutathione (GSH) content, VB-48 vitality assay; format: cell-based, human; conditions: G-361, 24 h, compound at IC50 concentration, representative histogram; quadrant not defined in legend
# Experimental: Analyses of the levels of cellular thiols were performed using NC 3000 system (Chemometec., Lillerød, Denmark) according to the manufacturer’s protocol for the cell vitality assay. The G-361 cells were seeded in 12-well culture plates at a density of 1 × 10^5 cell/mL and the tested compounds in concentrations corresponding to IC50 value were added when 70–80% of confluence was achieved. The cells were counted, and suspended in 1 mL of culture medium. A representative sample of 190 uL was pipetted into the new Eppendorf tubes and 10 µL of Solution 5 (which contains acridine orange (AO) that stains all nucleated cells; PI which stains dead cells only; and VitaBright-48 TM ([…]) which stains viable cells in an intensity-dependent manner reliant on the level of thiols) was added to the cell suspension. Next, the stained cells were loaded into 8-chamber NC-Slides A8™ (Chemometec., Lillerød, Denmark) and measured using the Vitality (VB-48) Assay protocol in the NC-3000 image cytometer. The experiment was performed three times with three replicates.
# [4] = test system: dihydroorotate dehydrogenase (DHODH); test: qRT-PCR relative mRNA expression, DHODH; format: cell-based, human; conditions: G-361, 48 h incubation, RQ = 2^-ΔΔCt, mean ± SD, control 1.000
# Experimental: (§3) […] cell line was seeded into 6-well plates in the concentration of 4 × 10^5 cells/well. Thiosemicarbazide derivatives were added when 70–80% of confluence was achieved. After 48 h of incubation, 1 mL of TRIzol™ Reagent (Invitrogen, Carlsbad, CA, USA) was added to lyse the cells. Lysates were centrifuged for 5 min at 12,000× g at 4 °C, and clear supernatants were processed according to the manufacturer’s protocol. Then, reverse transcription was performed using NG dART RT-PCR kit (EURx, Gdańsk, Poland) and a Mastercycler gradient thermocycler (Eppendorf, Hamburg, Germany). Thermal profile of the reaction: 10 min at 25 °C, then 50 min at 50 °C, and 5 min at 85 °C. mRNA levels of the genes DHODH, 18SRNA, and BACT were assessed using TaqMan Fast Advanced Master Mix (ThermoFisher, Waltham, MA, USA). mRNA levels of the following genes: CAT, SOD2,18SRNA TBP were assessed using PowerUp SYBR Green Master Mix (ThermoFisher, Waltham, MA, USA) in a 7500 Fast Real-Time PCR System (ThermoFisher, Waltham, MA, USA). Thermal profile of the reactions performed: 20 s at 95 °C, followed by 40 cycles of 3 s at 95 °C and 30 s at 60 °C. The reaction was carried out in triplicates. Relative expression of the tested genes was determined by qRT-PCR and the ΔΔCt method. The statistical analysis was performed with RQ values (relative quantification, RQ = 2^−∆ΔCt).
# [5] = test system: catalase (CAT); test: qRT-PCR relative mRNA expression, CAT; format: cell-based, human; conditions: for CAT expression change: G-361; for Relative mRNA expression level CAT (RQ): G-361, 48 h incubation, RQ = 2^-ΔΔCt, mean ± SD, control 1.016
# Experimental: as §3
# [6] = RP-TLC lipophilicity; format: physicochemical; conditions: for RMW (chromatographic lipophilicity parameter): RP-18 plates, methanol-water 65-95%, extrapolated to 0% methanol; for -S TLC (slope of linear equation): Table S3
# Experimental: RP-TLC analysis was performed using RP-18 TLC silica gel 60 F254 plates (10 × 20 cm, Merck, Darmstadt, Germany) with a DS-II chromatographic horizontal chamber (CHROMDES, Lublin, Poland). The mobile phase consisted of methanol (POCH, Gliwice, Poland) and water with the following concentrations of methanol: 65–95% (%, v/v), with a concentration change every 5%. After drying, the spots were observed under a UV lamp with a wavelength of 254 nm.
# [7] = 24 h treatment, BJ normal fibroblasts, concentration range 10-250 µM, read-out: IC50 BJ
# [8] = BJ fibroblasts, further analysis, value in parentheses after >250, read-out: IC50 BJ (value in parentheses)
Structure (SMILES),cytotoxic to melanoma cells (MTT test) [1],IC50 ([1]; Homo sapiens) [µM],toxic to normal fibroblasts (MTT test) [2],"IC50 ([2]; Homo sapiens, Fibroblast, 24 h treatment, BJ normal fibroblasts, concentration range 10-250 µM, read-out: IC50 BJ) [µM]","IC50 ([2]; Homo sapiens, Fibroblast, BJ fibroblasts, further analysis, value in parentheses after >250, read-out: IC50 BJ (value in parentheses)) [µM]","GSH content analysis, quadrant Q1ll [3] [%]","GSH content analysis, quadrant Q1lr [3] [%]","GSH content analysis, quadrant Q1ul [3] [%]","GSH content analysis, quadrant Q1ur [3] [%]",Relative mRNA expression level DHODH (RQ) [4],CAT expression change [5],Relative mRNA expression level CAT (RQ) [5],RMW (chromatographic lipophilicity parameter) [6],-S TLC (slope of linear equation) [6],IC50 [1] [µM],"IC50 [2, 7] [µM]","IC50 [2, 8] [µM]"
"CSc1ccc(NC(=S)NNC(=O)COc2ccc(Cl)cc2Cl)cc1 [PK2, 1-(2,4-dichlorophenoxy)acetyl-4-(4-metylothiophenyl)thiosemicarbazide]",cytotoxic,108 ± 6,not toxic,> 250,828,3,44,30,23,0.463 ± 0.016,reduction,0.107 ± 0.013,3.2058,3.8253,–,–,–
"O=C(COc1ccc(Cl)cc1Cl)NNC(=S)Nc1ccccc1I [PK6, 1-(2,4-dichlorophenoxy)acetyl-4-(2-iodophenyl)thiosemicarbazide]",cytotoxic,–,not toxic,–,–,4,46,28,22,0.824 ± 0.030,increased,2.691 ± 0.127,2.8125,3.3436,112 ± 4.76,> 250,631
"O=C(COc1ccc(Cl)cc1Cl)NNC(=S)Nc1cccc2ccccc12 [PK9, 1-(2,4-dichlorophenoxy)acetyl-4-(1-naphtyl)thiosemicarbazide]",cytotoxic,–,not toxic,–,–,3,41,26,30,0.375 ± 0.018,reduction,0.354 ± 0.022,3.1398,3.8345,113 ± 4,> 250,894
